SMILES strings stand for the structures. Square brackets hold non-standard residues; d marks the D form. Peptide text beside a SMILES is read from it.

In general, Kd refers to the constant that tells how readily two partners part at equilibrium. High values mean weaker binding, low ones tighter binding.

In one test the target is WT α-syn (Homo sapiens, UniProt P37840). Description: Single cycle SPR experiment of WT α-syn on CM5-immobilized peptides (FIG. 8). To be noted: 1:1 binding model fit, CM5 chip, PBS pH 7.4, 0.005% Tween-20. The protocol: Each peptide was immobilized on a CM5 sensor chip surface. WT α-syn was injected in a concentration range of 30-500 nM in PBS, PH 7.4, 0.005% (v/v) Tween-20. Regeneration was carried out after every cycle with 2 M Gua-HCl for 2×30 sec. The KDs were determined with a 1:1 binding model fit, as follows: SVD-1a: 15.7 nM; SVD-6a: 14.0 nM; SVD-10a: 12.3 nM.

The target of the next test is monomeric α-syn (Homo sapiens, UniProt P37840). Description: Size-exclusion chromatography of monomeric α-syn after incubation with SVD-1a (FIG. 13). The test is classed as biochemical. To be noted: 10 μM α-syn monomer with 0-80 μM SVD-1a, 2 h, 37° C., 300 rpm. The procedure: 10 μM α-syn monomer were incubated with 0, 5, 10, 20, 40 and 80 μM SVD-1a in PBS, pH 7.4, for 2 h at 37° C. and 300 rpm. The SEC was carried out with a Bio SEC-3 column (150 Å, Agilent, USA) at 1 ml min^−1 and PBS, pH 7.4, as mobile phase. The samples were centrifuged for 5 minutes at 20 800×g before the supernatant was injected. The protein was detected at A214. α-syn monomer eluted after 6.91 min retention time. The peak area of the α-syn monomer was integrated for the 10 μM α-syn sample and set to 100%. The concentration of monomeric α-syn was not reduced in the presence of increasing concentrations of SVD-1a. SVD-1a itself was only eluted during the purification and regeneration procedure of the SEC, which is highly probably attributable to its high net positive charge.

Test [1] relates to αSynA53T-YFP cells (HEK293T). Description: Cell assay for seeded α-synuclein aggregation (FIG. 19). Conditions: seeded with 30 nM PFF oligomers, day 3, two-stage transfection. It is filed as cell-based, human. The procedure:
A construct encoding full-length A53T-mutated human α-syn and fused with YFP at the C-terminus was synthesized and introduced into the pMK-RQ expression vector (GeneArt; Thermo Fisher Scientific, USA). The α-synA53T-YFP construct was sub-cloned using the restriction sites NheI (5′) and NotI (3′) in the vector pIRESpuro3 (Clontech; Takara Bio, JPN). HEK293T cells (American Type Culture Collection) were cultured in high-glucose Dulbecco's Modified Eagle's Medium (DMEM; Sigma-Aldrich, USA) which had 10% fetal calf serum (Sigma-Aldrich, USA), 50 units/ml penicillin, and also 50 μg/ml streptomycin (Sigma-Aldrich, USA) added thereto. The cells were cultured at 37° C. in a humidified atmosphere with 5% CO2.
The cells plated in DMEM were transfected with Lipofectamine 2000 (Invitrogen; Thermo Fisher Scientific, USA). Stable cells were selected in DMEM with 1 μg/ml puromycin (EMD Millipore, USA). Monoclonal cell lines were produced by means of fluorescence-activated cell sorting of a polyclonal cell population in 96-well plates using a MoFlo XDP cell sorter (Beckman Coulter, USA). […]
The plates were then incubated at 37° C. in a humidified atmosphere with 5% CO2. On the third day, the cells were imaged in an IN Cell Analyzer 6500HS system (Cytiva, USA) using the blue and green fluorescence channels, and analyzed by the IN Carta Image Analysis software (Cytiva, USA) which had been used to establish an algorithm for identifying intracellular aggregates in living cells. Four wells were used for each condition and 16 images were recorded per well and analyzed by a fully-automated algorithm in order to prevent distortions. […]
In order to validate the inhibitory effect of SVD-1a in cells, use was made of the α-synA53T-YFP cell system which stably expresses human α-syn with the familial A53T mutation, fused with YFP, in HEK293T cells, and the fluorescence-based detection of aggregates makes it possible to clearly show the strongly fluorescent spots within the cells against the background, intracellularly after seeding with PFF oligomers. […] Panels C, F and I show αSynA53T-YFP fluorescence. […]

Consider `CC[C@@H](C)[C@@H](NC(=O)[C@@H](Cc1c[nH]cn1)NC(=O)[C@@H](CCC(=O)O)NC(=O)[C@@H](CCC(N)=O)NC(=O)[C@@H](Cc1c[nH]c2ccccc12)NC(=O)[C@@H](Cc1ccc(O)cc1)NC(=O)[C@H](NC(=O)[C@@H](CCC(=O)O)NC(=O)[C@@H](Cc1c[nH]cn1)NC(=O)[C@H](NC(=O)[C@H]1CCCN1C(=O)[C@@H](CC(C)C)NC(=O)[C@H](N)CCCNC(=N)N)[C@H](C)O)[C@H](C)O)C(=O)N[C@H](Cc1c[nH]c2ccccc12)C(=O)N[C@H](Cc1c[nH]cn1)C(=O)N[C@H](C)C(=O)N[C@H](CCCNC(=N)N)C(=O)N[C@H](CCCNC(=N)N)C(=O)N[C@H](CCCNC(=N)N)C(=O)N[C@H](CCCNC(=N)N)C(=O)N[C@H](CCCNC(=N)N)C(N)=O` [SVD-1a, rlpthetywqehiwharrrrr] (H-[dR][dL][dP][dT][dH][dE][dT][dY][dW][dQ][dE][dH][dI][dW][dH][dA][dR][dR][dR][dR][dR]-NH2), for which, at WT α-syn, the Kd came out at 15.7 nM. The “concentration of monomeric α-syn (SEC peak area)” value at monomeric α-syn was “not reduced”. Further, the “inhibition of α-syn aggregation in cells” value in test [1] was “inhibited α-syn aggregation in αSynA53T-YFP cells in a dose-dependent manner”.

The values above are taken from patent publication US20250346629A1, “USE OF D-ENANTIOMERIC PEPTIDE LIGANDS OF MONOMERIC ALPHA-SYNUCLEIN FOR THE THERAPY OF VARIOUS SYNUCLEINOPATHIES” (PRIAVOID GMBH, priority 2021, published 2025).
